# What was measured:
# [1] = test system: RPE1-hTERT TP53−/− RNASEH2B−/− cells; assay: 6-day CTG viability assay, RPE1-hTERT TP53−/− RNASEH2B−/− cells; assay type: cell-based; conditions: Compound 43 combined with niraparib; compared with Compound 121 plus niraparib; FIGS. 3A and 3B
# Experimental: Viability was measured with a 6-day CTG assay. Mean of three independent experiments±SD. Solid lines, non-linear least squares fit to a four-parameter dose-response model. IC50 values are indicated below panels. […] Viability was measured with a 6-day CTG assay. Mean of three independent experiments±SD. Solid lines, non-linear least squares fit to a four-parameter dose-response model. IC50 values are indicated below panels.
# MIAPACA2 ATM−/− cells = assay: 48 h treatment, CTG viability at day 6, MIAPACA2 ATM−/− cells; assay type: cell-based; conditions: 48 h treatment with combination of niraparib and Compound 121; MIAPACA2 ATM CRISPR knockout; FIGS. 6A and 6B
# Experimental: (§1) Cells were treated for 48 h, followed by removal of the compounds and growth in fresh media. Viability was measured at day 6 by a CTG assay. Mean of three technical replicates±SD. Solid lines, non-linear least squares fit to a four-parameter dose-response model. IC50 values are indicated below panels. […] Cells were treated for 48 h, followed by removal of the compounds and growth in fresh media. Viability was measured at day 6 by a CTG assay. Mean of three technical replicates±SD. Solid lines, non-linear least squares fit to a four-parameter dose-response model. IC50 values are indicated below panels.
# [2] = test system: RPE1-hTERT TP53−/− CDK12−/− cells; assay: 48 h treatment, CTG viability at day 6, RPE1-hTERT TP53−/− CDK12−/− cells; assay type: cell-based; conditions: 48-hr treatment with combination of Compound 121 and niraparib; FIGS. 7A and 7B
# Experimental: as §1, with “independent experiments±SD.” for “technical replicates±SD.”
# [3] = test system: ALT-positive (ALT+) cancer cell lines; assay: Cell viability of ALT+ and ALT− cancer cell line panels; assay type: cell-based; conditions: combination of low-nanomolar doses of Compound 121 and talazoparib; five ALT+ lines; FIGS. 9A and 9B
# Experimental: FIG. 9A is a chart showing cell viability for ALT+ and ALT− cell lines that were untreated, treated with talazoparib alone, treated with compound 121 alone, or treated with a combination of talazoparib and compound 121.
# FIG. 9B is a chart showing the cell viability for ALT+ and ALT− cells that were treated with a combination of talazoparib and compound 121.
# DLD1 BRCA2−/− cells = assay: 48 h treatment, CTG viability, DLD1 BRCA2−/− cells; assay type: cell-based; conditions: 48-hr treatment with combination of Compound 121 and talazoparib; FIGS. 8A and 8B
# Experimental: FIG. 8A is a chart showing dose response curves of DLD1 BRCA2+/+ cells to talazoparib in the absence (DMSO) or presence of indicated concentrations of Compound 121. Cells were treated for 48 h, followed by removal of the compounds and growth in fresh media. Viability was measured at day 6 by a CTG assay. Mean of three independent experiments±SD. Solid lines, non-linear least squares fit to a four-parameter dose-response model. IC50 values are indicated below panels.
# FIG. 8B is a chart showing dose response curves of DLD1 BRCA2−/− cells to talazoparib in the absence (DMSO) or presence of indicated concentrations of Compound 121. Cells were treated for 48 h, followed by removal of the compounds and growth in fresh media. Viability was measured at day 9 by a CTG assay. Mean of three independent experiments±SD. Solid lines, non-linear least squares fit to a four-parameter dose-response model. IC50 values are indicated below panels.
# 5637 RNASEH2B−/− cells = assay: ZIP synergy matrix and 7-day CTG viability assay, 5637 RNASEH2B−/− cells; assay type: cell-based; conditions: for concentration at maximum synergy, lower in RNASEH2B−/− than in RNASEH2B+/+ cells: FIGS. 1A and 1B
# Experimental: (§2) FIG. 1B is chart showing ZIP synergy score matrix in RNASEH2B−/− cells. […] Score of >10 indicates synergy, while <(−10) indicates antagonism. Dashed lines represent the IC50 value of each compound in the respective cell line. […] Viability was measured with a 7-day CTG assay. Mean of three independent experiments±SD. Solid lines, non-linear least squares fit to a four-parameter dose-response model. IC50 values are indicated below panels. […] Viability was measured with a 7-day CTG assay. Mean of three technical replicates±SD. Solid lines, non-linear least squares fit to a four-parameter dose-response model. IC50 values are indicated below panels.
# 5637 RNASEH2B+/+ cells = assay: ZIP synergy matrix and 7-day CTG viability assay, 5637 RNASEH2B+/+ cells; assay type: cell-based; conditions: combination of Compound 121 and niraparib, FIG. 1A
# Experimental: as §2, with “1A” for “1B”, “RNASEH2B+/+” for “RNASEH2B−/−”
# [4] = test system: 5637 RNASEH2B+/+ and −/− cells; conditions: FIG. 5B
# Experimental: FIG. 5A is a scheme showing the experimental design. 5637 cells were treated with niraparib alone or niraparib combined with an IC50 concentration of Compound 121 for indicated times with or without removal of compounds. Cell viability was analyzed by a CellTiter Glo (CTG) assay 168 h post treatment.
# FIG. 5B is a chart showing apparent niraparib IC50 values in 5637 RNASEH2B+/+ and −/− cells from experiments described in FIG. 5A. Values were obtained by fitting mean data from three independent experiments to a four-parameter dose-response model. Error bars, 95% confidence interval (CI).
# To guide the combined dosing of Compound 121 and niraparib in RNASEH2B-deficient tumor cells, a continuous 168 h concomitant treatment of 5637 RNASEH2B+/+ and −/− cells with both compounds was compared to either a 48 or 72 h treatment followed by removal of compounds and growth in drug-free media (FIG. 5A).
# [5] = combination of Compound 121 and niraparib, 5637 cells
SMILES,sensitization of RNASEH2B-deficient cells [1],synergistic sensitization of ATM−/− clone (MIAPACA2 ATM−/− cells) [×],sensitization of isogenic cell line lacking CDK12 [2],sensitivity of ALT+ panel relative to ALT− control panel [3],sensitization of isogenic cell line lacking BRCA2 (DLD1 BRCA2−/− cells),"sensitization of RNASEH2B-deficient cells (5637 RNASEH2B−/− cells; Compound 121 combined with talazoparib, 5637 cells, 7-day CTG, FIGS. 4A and 4B)","synergy with niraparib (ZIP synergy score) (5637 RNASEH2B−/− cells; combination of Compound 121 and niraparib, 5637 RNASEH2B−/− cells, FIG. 1B)","concentration at maximum synergy, lower in RNASEH2B−/− than in RNASEH2B+/+ cells (5637 RNASEH2B−/− cells; [5])",synergy with niraparib (ZIP synergy score) (5637 RNASEH2B+/+ cells),"apparent IC50 value of niraparib ([4]; in presence of Compound 121 (IC50 concentration), dosed continuously for 168 h)","difference in apparent IC50 values of niraparib when treatment shortened ([4]; with Compound 121, 72 or 48 h treatment then drug-free media vs 168 h continuous)","shift of apparent IC50 of niraparib from RNASEH2B+/+ to RNASEH2B−/− cells (5637 RNASEH2B−/− cells; in presence of Compound 121, 5637 cells, 7-day CTG, FIGS. 2A and 2B) [fold]"
C[C@@H]1COCCN1c1cc(-c2ccccc2S(C)(=O)=O)c2cnn(-c3cc[nH]n3)c2n1 [Compound 43],sensitized RNASEH2B-deficient cells to a similar extent,–,–,–,–,–,–,–,–,–,–,–
C[C@@H]1COCCN1c1cc([C@@]2(O)C[C@H]3CC[C@@H](C2)O3)c2cnn(-c3cc[nH]n3)c2n1 [Compound 121],–,> 300,synergistically sensitized,more sensitive,synergistically sensitized,strong sensitization,strongly synergized,ca. three-fold,strongly synergized,–,–,–
"NC(=O)c1cccc2cn(-c3ccc([C@@H]4CCCNC4)cc3)nc12 [niraparib, reference compound]",–,–,–,–,–,–,–,ca. ten-fold,–,decreased,No significant difference,≤ 200

# Source: US20210177856A1, “USE OF ATR INHIBITORS IN COMBINATION WITH PARP INHIBITORS” (Repare Therapeutics Inc., priority 2019, published 2021)
